In US20240050409A1, “Methods and Compositions for Treating Psychotic Disorders” (SOUND PHARMACEUTICALS INCORPORATED, priority 2014, published 2024):
Entries after “also recorded” stand apart in the source; their conditions may differ.

Key:
SZ = details: in vivo; cited from earlier work
[1] = system: perineuronal nets (PNN) in the PFC of NVHL rats; experiment: WFA staining of perineuronal nets (PNN) around PVI in PFC of NVHL rats; type: in vivo, Sprague-Dawley rats; details: adult NVHL rats, juvenile treatment
From the text: To determine the types of interneurons expressing oxidative stress in NVHL rats, 8-oxo-dG with PV, calbindin (CB) and calretinin (CR) was co-labeled. […] About 50% of PVI were co-labeled with 8-oxo-dG, indicating oxidative stress is pervasive in this cell population. A marker of PVI maturation is Wisteria Floribunda agglutinin (WFA), a lectin that recognizes the perineuronal nets (PNN) enwrapping mature cortical PVI. […] PVI may be highly exposed to increased oxidative stress because they make up the majority of fast-spiking interneurons and their high energy metabolism may generate more reactive oxygen species than non-fast spiking neurons.
Antioxidant pretreatment regimen: NAC (BioAdvantexPharma, Mississauga, Ontario, Canada) was administered in the drinking water at 900 mg/l. NAC treatment started at P5 or at P35, and previous work in mice has shown that NAC consumed by the dam is transmitted to the pups through her milk (das Neves Duarte et al., 2012). NAC treatment ended at P50. Fresh solutions were prepared every 2-3 days. Ebselen (Sound Pharmaceuticals Inc., Seattle, WA) was administered i.p. 5 days a week starting at P35 until the day of PPI testing (P60). Stock ebselen solution (20 mg/ml DMSO, frozen aliquots) was diluted 1:5 in sterile water and administered at a dose of 10 mg/kg. Control animals received an equivalent concentration of DMSO diluted 1:5 in water. […]

[2] = system: dopamine D2-dependent modulation of EPSPs in PFC pyramidal cells of NVHL rats; experiment: Slice electrophysiology: D2 (quinpirole) modulation of EPSPs in PFC layer V pyramidal cells of NVHL rats; type: in vivo, Sprague-Dawley rats; details: adult NVHL rat PFC slices, quinpirole 5 μM; treatment during development
Description: If juvenile oxidative stress is the cause of physiological anomalies observed in adult NVHL rats, NAC treatment can rescue these alterations. Whole-cell recordings were conducted from pyramidal neurons in adult brain slices containing the medial PFC of SHAM (n=12), NVHL (n=16), and NAC-treated NVHL rats (n=14). As previously shown in adult NVHL rats and other rodent models of schizophrenia (Niwa et al., 2010; Tseng et al., 2008), the dopamine D2-dependent modulation of excitatory postsynaptic potentials (EPSPs) in layer V pyramidal cells was lost in NVHL rats (as shown in FIGS. 13A-C). This loss is likely due to abnormal maturation of PFC interneurons, as the normal adult D2 modulation includes a GABA-A receptor component (Tseng and O'Donnell, 2007), but oxidative stress in pyramidal neurons may also play a role. To determine whether altered PVI-dependent PFC synaptic responses are due to oxidative stress, rats were treated with NAC during development and then tested for D2 modulation of PFC physiology.
Antioxidant pretreatment regimen: NAC (BioAdvantexPharma, Mississauga, Ontario, Canada) was administered in the drinking water at 900 mg/l. NAC treatment started at P5 or at P35, and previous work in mice has shown that NAC consumed by the dam is transmitted to the pups through her milk (das Neves Duarte et al., 2012). NAC treatment ended at P50. […]

Question: For `CC(=O)N[C@@H](CS)C(=O)O` [NAC, N-acetyl cysteine], which “mismatch negativity in SZ” value (SZ) is on record?
Answer: The value was “improved”.

Question: What about the “effect on reduced WFA staining / WFA-positive PVI (PNN)” value [1] of the same compound?
Answer: Its value is “restored; also recorded: prevented”.

Question: What about the “effect on lost D2 modulation (quinpirole attenuation) of EPSPs” value [2] of the same compound?
Answer: Its value is “rescued; also recorded: reverses”.
